This note sets out measurements from patent US20240043427A1 (Gilead Sciences, Inc., priority 2020, published 2024).

For test [1], the target named is T1, CD73 (Homo sapiens (Human), UniProt P21589). Put plainly: MDA-MB-231 Cell Based CD73 Activity Assay. Particulars: MDA-MB-231-GFP cells, RPMI medium with 10% human plasma, 200 uM AMP. The protocol:
MDA-MB-231 Cell Based CD73 Activity Assay
MDA-MB-231-GFP cells were seeded in 384-well plates (Greiner 781946) at a density of 10000 cells per well in 50 μL of RPMI medium with 10% HP (human plasma). Cells were plated into assay plate with compounds pre-spotted, for an overnight compound treatment. 50 μL of 400 μM AMP (final concentration 200 μM) using a Bio-tek dispenser. Plates were incubated for 100 mins. […] The samples were run using Rapid fire.

In test [2] the target is T1, CD73. The format is biochemical. The conditions noted are these: 1 mM NaH2PO4 in enzyme buffer, CD73 0.3 nM, AMP 15 uM.
For test [3], the target named is T1, CD73. Put plainly: MDA-MB-231 Cell Based CD73 Activity Assay (DMEM). Particulars: MDA-MB-231-GFP cells, DMEM medium with 10% human plasma, 200 uM AMP.

T1 sequence (P21589 27-574): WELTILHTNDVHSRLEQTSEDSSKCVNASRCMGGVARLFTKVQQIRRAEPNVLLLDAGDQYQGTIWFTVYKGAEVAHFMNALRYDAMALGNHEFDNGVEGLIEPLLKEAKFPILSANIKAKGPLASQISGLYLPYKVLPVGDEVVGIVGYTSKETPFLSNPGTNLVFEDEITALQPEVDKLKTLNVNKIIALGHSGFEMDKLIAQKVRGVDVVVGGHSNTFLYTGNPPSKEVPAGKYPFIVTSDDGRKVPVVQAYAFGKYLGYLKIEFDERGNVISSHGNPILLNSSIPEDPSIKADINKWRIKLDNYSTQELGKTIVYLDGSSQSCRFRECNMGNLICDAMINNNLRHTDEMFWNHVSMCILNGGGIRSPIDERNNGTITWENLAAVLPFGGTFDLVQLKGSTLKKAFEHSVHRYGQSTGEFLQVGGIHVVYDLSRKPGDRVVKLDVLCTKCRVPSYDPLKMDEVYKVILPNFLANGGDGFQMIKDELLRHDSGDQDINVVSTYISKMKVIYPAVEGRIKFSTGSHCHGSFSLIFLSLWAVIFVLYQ

Molecule `O=c1[nH]cc(-c2cc([C@H]3C[C@@H]3c3ccc(OC(F)(F)F)cc3)c3nccn3n2)c(=O)[nH]1` (mixture of isomers) [Example 48, 5-(8-((1S,2S)-2-(4-(trifluoromethoxy)phenyl)cyclopropyl)imidazo[1,2-b]pyridazin-6-yl)pyrimidine-2,4(1H,3H)-dione and 5-(8-((1R,2R)-2-(4-(trifluoromethoxy)phenyl)cyclopropyl)imidazo[1,2-b]pyridazin-6-yl)pyrimidine-2,4(1H,3H)-dione] gave an EC50 at CD73 [1] of 16.7 nM.

`O=c1[nH]cc(-c2cc([C@H]3C[C@@H]3c3ccc(C(F)(F)F)c(F)c3)c3nccn3n2)c(=O)[nH]1` (mixture of isomers) [Example 100, 5-(8-((1S,2S)-2-(3-fluoro-4-(trifluoromethyl)phenyl)cyclopropyl)imidazo[1,2-b]pyridazin-6-yl)pyrimidine-2,4(1H,3H)-dione and 5-(8-((1R,2R)-2-(3-fluoro-4-(trifluoromethyl)phenyl)cyclopropyl)imidazo[1,2-b]pyridazin-6-yl)pyrimidine-2,4(1H,3H)-dione] yielded an EC50 at CD73 [1] of 27.5 nM.

At CD73 [1], `COc1ccccc1[C@H]1C[C@@H]1c1cc(-c2c[nH]c(=O)[nH]c2=O)nn2ccnc12` (mixture of isomers) [Example 101, 5-(8-((1S,2S)-2-(2-methoxyphenyl)cyclopropyl)imidazo[1,2-b]pyridazin-6-yl)pyrimidine-2,4(1H,3H)-dione and 5-(8-((1R,2R)-2-(2-methoxyphenyl)cyclopropyl)imidazo[1,2-b]pyridazin-6-yl)pyrimidine-2,4(1H,3H)-dione] registered an EC50 of 3.25 nM.

On CD73 [1], `O=c1[nH]cc(-c2cc([C@H]3C[C@@H]3C3CC(F)(F)C3)c3nccn3n2)c(=O)[nH]1` (mixture of isomers) [Example 106, 5-(8-((1S,2R)-2-(3,3-difluorocyclobutyl)cyclopropyl)imidazo[1,2-b]pyridazin-6-yl)pyrimidine-2,4(1H,3H)-dione and 5-(8-((1R,2S)-2-(3,3-difluorocyclobutyl)cyclopropyl)imidazo[1,2-b]pyridazin-6-yl)pyrimidine-2,4(1H,3H)-dione] showed an EC50 of 93.5 nM.

Consider `O=c1[nH]cc(-c2cc([C@H]3C[C@@H]3C(F)(F)F)c3nccn3n2)c(=O)[nH]1` (mixture of isomers) [Example 107, 5-(8-((1S,2S)-2-(trifluoromethyl)cyclopropyl)imidazo[1,2-b]pyridazin-6-yl)pyrimidine-2,4(1H,3H)-dione and 5-(8-((1R,2R)-2-(trifluoromethyl)cyclopropyl)imidazo[1,2-b]pyridazin-6-yl)pyrimidine-2,4(1H,3H)-dione], for which the EC50 on CD73 [1] was 55 nM.

On CD73 [2], `O=c1[nH]cc(-c2cc([C@H]3C[C@@H]3c3cc4c(ccn4CC(F)(F)F)cn3)c3nccn3n2)c(=O)[nH]1` [Example 705, 5-(8-((1S,2S)-2-(1-(2,2,2-trifluoroethyl)-1H-pyrrolo[3,2-c]pyridin-6-yl)cyclopropyl)imidazo[1,2-b]pyridazin-6-yl)pyrimidine-2,4(1H,3H)-dione] came in with an IC50 of 0.4 nM. Also, on CD73 [3], a half-maximal response (EC50) required 0.07 nM.

As for `O=c1[nH]cc(-c2cc([C@H]3C[C@@H]3c3cc4c(cn3)c(F)cn4CC(F)(F)F)c3nccn3n2)c(=O)[nH]1` [Example 706, 5-(8-((1S,2S)-2-(3-fluoro-1-(2,2,2-trifluoroethyl)-1H-pyrrolo[3,2-c]pyridin-6-yl)cyclopropyl)imidazo[1,2-b]pyridazin-6-yl)pyrimidine-2,4(1H,3H)-dione], the IC50 against CD73 [2] was found to be 0.33 nM. At CD73 [3], this molecule came in with an EC50 of 0.15 nM.

In the case of `O=c1[nH]cc(-c2cc([C@H]3C[C@@H]3c3ccc4ccn(CC(F)(F)F)c(=O)c4c3)c3nccn3n2)c(=O)[nH]1` [Example 707, 5-(8-((1S,2S)-2-(1-oxo-2-(2,2,2-trifluoroethyl)-1,2-dihydroisoquinolin-7-yl)cyclopropyl)imidazo[1,2-b]pyridazin-6-yl)pyrimidine-2,4(1H,3H)-dione], the IC50 against CD73 [2] was 2.65 nM. The molecule also registered an EC50 at CD73 [3] of 8.88 nM.

`O=c1[nH]cc(-c2cc([C@H]3C[C@@H]3c3ccc4c(c3)c(=O)ccn4CC(F)(F)F)c3nccn3n2)c(=O)[nH]1` [Example 708, 5-(8-((1S,2S)-2-(4-oxo-1-(2,2,2-trifluoroethyl)-1,4-dihydroquinolin-6-yl)cyclopropyl)imidazo[1,2-b]pyridazin-6-yl)pyrimidine-2,4(1H,3H)-dione]: the IC50 against CD73 [2] turned out to be 3.3 nM. Also, the concentration giving a half-maximal response (EC50) on CD73 [3] is 6.21 nM.

As for `O=c1[nH]cc(-c2cc([C@H]3C[C@@H]3c3ccc4nccc(OCC(F)(F)F)c4c3)c3nccn3n2)c(=O)[nH]1` [Example 709, 5-(8-((1S,2S)-2-(4-(2,2,2-trifluoroethoxy)quinolin-6-yl)cyclopropyl)imidazo[1,2-b]pyridazin-6-yl)pyrimidine-2,4(1H,3H)-dione], the IC50 on CD73 [2] was found to be 1.24 nM. The EC50 at CD73 [3] stood at 0.4 nM.

`O=c1[nH]cc(-c2cc([C@H]3C[C@@H]3c3ccc4cncc(OCC(F)(F)F)c4c3)c3nccn3n2)c(=O)[nH]1` [Example 710, 5-(8-((1S,2S)-2-(4-(2,2,2-trifluoroethoxy)isoquinolin-6-yl)cyclopropyl)imidazo[1,2-b]pyridazin-6-yl)pyrimidine-2,4(1H,3H)-dione]: the IC50 against CD73 [2] came to 1.43 nM. The concentration for a half-maximal effect (EC50) at CD73 [3] was 4.06 nM.

`Cc1cc([C@H]2C[C@@H]2c2cc(-c3c[nH]c(=O)[nH]c3=O)nn3ccnc23)cc2c1cnn2CC(F)(F)F` [Example 714, 5-(8-((1S,2S)-2-(4-methyl-1-(2,2,2-trifluoroethyl)-1H-indazol-6-yl)cyclopropyl)imidazo[1,2-b]pyridazin-6-yl)pyrimidine-2,4(1H,3H)-dione]: it took 0.7 nM to reach half-maximal inhibition against CD73 [2] (IC50). Moreover, the EC50 at CD73 [3] stood at 0.19 nM.

As for `O=C1N(CC(F)(F)F)c2cc([C@H]3C[C@@H]3c3cc(-c4c[nH]c(=O)[nH]c4=O)nc4ccnn34)ccc2C12CC2` [Example 715, 5-(7-((1S,2S)-2-(2′-oxo-1′-(2,2,2-trifluoroethyl)spiro[cyclopropane-1,3′-indolin]-6′-yl)cyclopropyl)pyrazolo[1,5-a]pyrimidin-5-yl)pyrimidine-2,4(1H,3H)-dione], the IC50 against CD73 [2] turned out to be 1.42 nM. The midpoint of the response at CD73 [3], the EC50, lay at 0.32 nM.

On CD73 [2], `O=c1[nH]cc(-c2cc([C@H]3C[C@@H]3c3ccc4cnn(CC(F)(F)F)c4c3)n3ncc(F)c3n2)c(=O)[nH]1` [Example 716, 5-(3-fluoro-7-((1S,2S)-2-(1-(2,2,2-trifluoroethyl)-1H-indazol-6-yl)cyclopropyl)pyrazolo[1,5-a]pyrimidin-5-yl)pyrimidine-2,4(1H,3H)-dione] came in with an IC50 of 0.35 nM. Further, the response on CD73 [3] was half-maximal at 0.28 nM (EC50).

Take `O=c1[nH]cc(-c2cc([C@H]3C[C@@H]3c3cnc4c(F)nn(CC(F)(F)F)c4c3)c3nccn3n2)c(=O)[nH]1` [Example 717, 5-[8-[(1S,2S)-2-[3-fluoro-1-(2,2,2-trifluoroethyl)pyrazolo[4,3-b]pyridin-6-yl]cyclopropyl]imidazo[1,2-b]pyridazin-6-yl]-1H-pyrimidine-2,4-dione]: the IC50 against CD73 [2] is 0.69 nM. On CD73 [3], this molecule came in with an EC50 of 0.26 nM.

`O=c1[nH]cc(-c2cc([C@H]3C[C@@H]3c3cnc4c(F)nn(CC(F)(F)F)c4c3)c3ncc(Cl)n3n2)c(=O)[nH]1` [Example 719, 5-[3-chloro-8-[(1S,2S)-2-[3-fluoro-1-(2,2,2-trifluoroethyl)pyrazolo[4,3-b]pyridin-6-yl]cyclopropyl]imidazo[1,2-b]pyridazin-6-yl]-1H-pyrimidine-2,4-dione] had an IC50 at CD73 [2] of 0.51 nM. In addition, on CD73 [3], the EC50 turned out to be 0.46 nM.

At CD73 [2], `O=c1[nH]cc(-c2cc([C@H]3C[C@@H]3c3ccc4c(F)nn(CC(F)(F)F)c4c3)c3ncc(Cl)n3n2)c(=O)[nH]1` [Example 721, 5-[3-chloro-8-[(1S,2S)-2-[3-fluoro-1-(2,2,2-trifluoroethyl)indazol-6-yl]cyclopropyl]imidazo[1,2-b]pyridazin-6-yl]-1H-pyrimidine-2,4-dione] returned an IC50 of 0.77 nM. The midpoint of the response on CD73 [3], the EC50, lay at 0.32 nM.

As for `CC1(C)C(=O)N(CC(F)(F)F)c2cc([C@H]3C[C@@H]3c3cc(-c4c[nH]c(=O)[nH]c4=O)nn4c(Cl)cnc34)ccc21` [Example 722, 5-[3-chloro-8-[(1S,2S)-2-[3,3-dimethyl-2-oxo-1-(2,2,2-trifluoroethyl)indolin-6-yl]cyclopropyl]imidazo[1,2-b]pyridazin-6-yl]-1H-pyrimidine-2,4-dione], it took 1.1 nM to reach half-maximal inhibition against CD73 [2] (IC50). The molecule further displayed an EC50 on CD73 [3] of 0.58 nM.

Consider `CC1(C)C(=O)N(CC(F)(F)F)c2cc([C@H]3C[C@@H]3c3cc(-c4c[nH]c(=O)[nH]c4=O)nn4c(F)cnc34)cnc21` [Example 723, 5-[8-[(1S,2S)-2-[3,3-dimethyl-2-oxo-1-(2,2,2-trifluoroethyl)pyrrolo[3,2-b]pyridin-6-yl]cyclopropyl]-3-fluoro-imidazo[1,2-b]pyridazin-6-yl]-1H-pyrimidine-2,4-dione], for which the IC50 against CD73 [2] was 2.75 nM. Moreover, at CD73 [3], the EC50 was found to be 1.04 nM.

For the molecule `O=c1[nH]cc(-c2cc(N3C[C@H](Oc4ccc(F)c(C(F)F)c4)C(F)(F)C3)c3nccn3n2)c(=O)[nH]1` [Example 745, (S)-5-(8-(4-(3-(difluoromethyl)-4-fluorophenoxy)-3,3-difluoropyrrolidin-1-yl)imidazo[1,2-b]pyridazin-6-yl)pyrimidine-2,4(1H,3H)-dione], on CD73 [2], the IC50 came out at 0.62 nM. Also, on CD73 [3], it took 0.69 nM to reach a half-maximal effect (EC50).
